Results taken from patent US9428499B2, “Heterocyclyl compounds as MEK inhibitors” (LUPIN LIMITED, priority 2012, dated 2016).

The compounds below were run on ERK phosphorylation (assay: Analysis of ERK phosphorylation (Alphascreen SureFire Phospho-ERK 1/2)). Settings: cells treated for 1 h; human melanoma cells, human and mouse colon cancer cells; read-out: Minimum concentration (nM) required for ≧80% inhibition of pERK.
Format: cell-based, human and mouse
Method: This assay was carried out with human melanoma cells, human and mouse colon cancer cells. Cells were treated for 1 h with various concentrations of test compounds. ERK phosphorylation analysis was performed using the Alphascreen SureFire Phospho-ERK 1/2 Kit (Perkin Elmer), by following the manufacturer's instructions. % inhibition of ERK phosphorylation was determined as: 100−{(RFU test−RFU lysis buffer control)/(RFU vehicle treated control−RFU lysis buffer control)}×100. Percentage inhibition at concentrations of 0.01 nM, 0.03 nM, 0.1-0.9 nM, 1 nM to 3 nM, 4-100 nM, and >100 nM, for the stated examples is setworth here. The percentage inhibition at the above depicted concentrations for the compounds stated are given in the following groups.

SMILES | IC80
Cc1c(=O)n(C)c(Nc2ccc(I)cc2F)c2c(=O)n(C3CC3)c(=O)n(-c3cccc(CC(=O)NC4COC4)c3)c12 [Compound 31, 2-(3-(3-cyclopropyl-5-((2-fluoro-4-iodophenyl)amino)-6,8-dimethyl-2,4,7-trioxo-3,4,6,7-tetrahydropyrido[4,3-d]pyrimidin-1(2H)-yl)phenyl)-N-(oxetan-3-yl)acetamide] | 0.01 nM
Cc1c(=O)n(C)c(Nc2ccc(I)cc2F)c2c(=O)n(C3CC3)c(=O)n(-c3cccc(C(O)C(N)=O)c3)c12 (stereo not shown) [Compound 32, 2-(3-(3-cyclopropyl-5-((2-fluoro-4-iodophenyl)amino)-6,8-dimethyl-2,4,7-trioxo-3,4,6,7-tetrahydropyrido[4,3-d]pyrimidin-1(2H)-yl)phenyl)-2-hydroxyacetamide] | 1 to 3 nM
Cc1c(=O)n(C)c(Nc2ccc(I)cc2F)c2c(=O)n(C3CC3)c(=O)n(-c3cccc(CC(=O)N4CC(O)C4)c3)c12 [Compound 33, 3-cyclopropyl-5-((2-fluoro-4-iodophenyl)amino)-1-(3-(2-(3-hydroxyazetidin-1-yl)-2-oxoethyl)phenyl)-6,8-dimethylpyrido[4,3-d]pyrimidine-2,4,7(1H,3H,6H)-trione] | 1 to 3 nM
Cc1c(=O)n(C)c(Nc2ccc(I)cc2F)c2c(=O)n(C3CC3)c(=O)n(-c3cccc(CCC(N)=O)c3)c12 [Compound 34, 3-(3-(3-cyclopropyl-5-((2-fluoro-4-iodophenyl)amino)-6,8-dimethyl-2,4,7-trioxo-3,4,6,7-tetrahydropyrido[4,3-d]pyrimidin-1(2H)-yl)phenyl)propanamide] | 1 to 3 nM
Cc1c(=O)n(C)c(Nc2ccc(I)cc2F)c2c(=O)n(C3CC3)c(=O)n(-c3cccc(OCC(N)=O)c3)c12 [Compound 35, 2-(3-(3-cyclopropyl-5-((2-fluoro-4-iodophenyl)amino)-6,8-dimethyl-2,4,7-trioxo-3,4,6,7-tetrahydropyrido[4,3-d]pyrimidin-1(2H)-yl)phenoxy)acetamide] | 0.03 nM
CNC(=O)CCc1cccc(-n2c(=O)n(C3CC3)c(=O)c3c(Nc4ccc(I)cc4F)n(C)c(=O)c(C)c32)c1 [Compound 36, 3-(3-(3-cyclopropyl-5-((2-fluoro-4-iodophenyl)amino)-6,8-dimethyl-2,4,7-trioxo-3,4,6,7-tetrahydropyrido[4,3-d]pyrimidin-1(2H)-yl)phenyl)-N-methylpropanamide] | 1 to 3 nM
Cc1c(=O)n(C)c(Nc2ccc(I)cc2F)c2c(=O)n(C3CC3)c(=O)n(-c3cccc(C(=O)N4CCS(=O)(=O)C4)c3)c12 [Compound 38, 3-cyclopropyl-1-(3-(1,1-dioxidothiazolidine-3-carbonyl)phenyl)-5-((2-fluoro-4-iodophenyl)amino)-6,8-dimethylpyrido[4,3-d]pyrimidine-2,4,7(1H,3H,6H)-trione] | 0.1 to 0.9 nM
Cc1c(=O)n(C)c(Nc2ccc(I)cc2F)c2c(=O)n(C3CC3)c(=O)n(-c3cccc(C(=O)N4CCS(=O)(=O)CC4)c3)c12 [Compound 39, 3-cyclopropyl-1-(3-(1,1-dioxidothiomorpholine-4-carbonyl)phenyl)-5-((2-fluoro-4-iodophenyl)amino)-6,8-dimethylpyrido[4,3-d]pyrimidine-2,4,7(1H,3H,6H)-trione] | 1 to 3 nM
Cc1c(=O)n(C)c(Nc2ccc(I)cc2F)c2c(=O)n(C3CC3)c(=O)n(-c3cccc(CCC(=O)NC4CC4)c3)c12 [Compound 40, N-cyclopropyl-3-(3-(3-cyclopropyl-5-((2-fluoro-4-iodophenyl)amino)-6,8-dimethyl-2,4,7-trioxo-3,4,6,7-tetrahydropyrido[4,3-d]pyrimidin-1(2H)-yl)phenyl)propanamide] | 4 to 100 nM
Cc1c(=O)n(C)c(Nc2ccc(I)cc2F)c2c(=O)n(C)c(=O)n(-c3cccc(OCC(=O)NC4CC4)c3)c12 [Compound 41, N-cyclopropyl-2-(3-(5-((2-fluoro-4-iodophenyl)amino)-3,6,8-trimethyl-2,4,7-trioxo-3,4,6,7-tetrahydropyrido[4,3-d]pyrimidin-1(2H)-yl)phenoxy)acetamide] | 0.1 to 0.9 nM
Cc1c(=O)n(C)c(Nc2ccc(I)cc2F)c2c(=O)n(C)c(=O)n(-c3cccc(CC(N)=O)c3)c12 [Compound 42, 2-(3-(5-((2-fluoro-4-iodophenyl)amino)-3,6,8-trimethyl-2,4,7-trioxo-3,4,6,7-tetrahydropyrido[4,3-d]pyrimidin-1(2H)-yl)phenyl)acetamide] | 0.1 to 0.9 nM
Cc1c(=O)n(C)c(Nc2ccc(I)cc2F)c2c(=O)n(C)c(=O)n(-c3cccc(C(C)(C)C(N)=O)c3)c12 [Compound 43, 2-(3-(5-((2-fluoro-4-iodophenyl)amino)-3,6,8-trimethyl-2,4,7-trioxo-3,4,6,7-tetra hydropyrido[4,3-d]pyrimidin-1(2H)-yl)phenyl)-2-methylpropanamide] | 0.1 to 0.9 nM
Cc1c(=O)n(C)c(Nc2ccc(I)cc2F)c2c(=O)n(C)c(=O)n(-c3cccc(CC(=O)N(C)C)c3)c12 [Compound 44, 2-(3-(5-((2-fluoro-4-iodophenyl)amino)-3,6,8-trimethyl-2,4,7-trioxo-3,4,6,7-tetra hydropyrido[4,3-d]pyrimidin-1(2H)-yl)phenyl)-N,N-dimethylacetamide] | 0.1 to 0.9 nM
Cc1c(=O)n(C)c(Nc2ccc(I)cc2F)c2c(=O)n(C)c(=O)n(-c3cccc(C(F)(F)C(N)=O)c3)c12 [Compound 45, 2,2-difluoro-2-(3-(5-((2-fluoro-4-iodophenyl)amino)-3,6,8-trimethyl-2,4,7-trioxo-3,4,6,7-tetrahydropyrido[4,3-d]pyrimidin-1(2H)-yl)phenyl)acetamide] | 1 to 3 nM
Cc1c(=O)n(C)c(Nc2ccc(I)cc2F)c2c(=O)n(C)c(=O)n(-c3cccc(CC(=O)N4CCC4)c3)c12 [Compound 46, 1-(3-(2-(azetidin-1-yl)-2-oxoethyl)phenyl)-5-((2-fluoro-4-iodophenyl)amino)-3,6,8-trimethylpyrido[4,3-d]pyrimidine-2,4,7(1H,3H,6H)-trione] | 0.01 nM
Cc1c(=O)n(C)c(Nc2ccc(I)cc2F)c2c(=O)n(C)c(=O)n(-c3cccc(C(O)C(N)=O)c3)c12 (stereo not shown) [Compound 47, 2-(3-(5-((2-fluoro-4-iodophenyl)amino)-3,6,8-trimethyl-2,4,7-trioxo-3,4,6,7-tetrahydropyrido[4,3-d]pyrimidin-1(2H)-yl)phenyl)-2-hydroxyacetamide] | 0.1 to 0.9 nM
Cc1c(=O)n(C)c(Nc2ccc(I)cc2F)c2c(=O)n(C)c(=O)n(-c3cccc(CC(=O)N4CC(O)C4)c3)c12 [Compound 48, 5-((2-fluoro-4-iodophenyl)amino)-1-(3-(2-(3-hydroxyazetidin-1-yl)-2-oxoethyl)phenyl)-3,6,8-trimethylpyrido[4,3-d]pyrimidine-2,4,7(1H,3H,6H)-trione] | 1 to 3 nM
Cc1c(=O)n(C)c(Nc2ccc(I)cc2F)c2c(=O)n(C)c(=O)n(-c3cccc(C(=O)NC4COC4)c3)c12 [Compound 49, 3-(5-((2-fluoro-4-iodophenyl)amino)-3,6,8-trimethyl-2,4,7-trioxo-3,4,6,7-tetra hydropyrido[4,3-d]pyrimidin-1(2H)-yl)-N-(oxetan-3-yl)benzamide] | 0.01 nM
Cc1c(=O)n(C)c(Nc2ccc(I)cc2F)c2c(=O)n(C)c(=O)n(-c3cccc(CC(=O)NC4COC4)c3)c12 [Compound 50, 2-(3-(5-((2-fluoro-4-iodophenyl)amino)-3,6,8-trimethyl-2,4,7-trioxo-3,4,6,7-tetrahydropyrido[4,3-d]pyrimidin-1(2H)-yl)phenyl)-N-(oxetan-3-yl)acetamide] | 4 to 100 nM
Cc1c(=O)n(C)c(Nc2ccc(I)cc2F)c2c(=O)n(C)c(=O)n(-c3cccc(C(=O)NC4CCOC4)c3)c12 (stereo not shown) [Compound 51, 3-(5-((2-fluoro-4-iodophenyl)amino)-3,6,8-trimethyl-2,4,7-trioxo-3,4,6,7-tetrahydropyrido[4,3-d]pyrimidin-1(2H)-yl)-N-(tetrahydrofuran-3-yl)benzamide] | 0.01 nM
Cc1c(=O)n(C)c(Nc2ccc(I)cc2F)c2c(=O)n(C)c(=O)n(-c3cccc(C(=O)NC4CCOCC4)c3)c12 [Compound 52, 3-(5-((2-fluoro-4-iodophenyl)amino)-3,6,8-trimethyl-2,4,7-trioxo-3,4,6,7-tetrahydropyrido[4,3-d]pyrimidin-1(2H)-yl)-N-(tetrahydro-2H-pyran-4-yl)benzamide] | 4 to 100 nM
Cc1c(=O)n(C)c(Nc2ccc(I)cc2F)c2c(=O)n(C)c(=O)n(-c3cccc(C(=O)NC4(CO)CC4)c3)c12 [Compound 53, 3-(5-((2-fluoro-4-iodophenyl)amino)-3,6,8-trimethyl-2,4,7-trioxo-3,4,6,7-tetrahydropyrido[4,3-d]pyrimidin-1(2H)-yl)-N-(1-(hydroxymethyl)cyclopropyl)benzamide] | 4 to 100 nM
Cc1c(=O)n(C)c(Nc2ccc(I)cc2F)c2c(=O)n(C)c(=O)n(-c3cccc(C(=O)NC4CC4)c3)c12 [Compound 54, N-cyclopropyl-3-(5-((2-fluoro-4-iodophenyl)amino)-3,6,8-trimethyl-2,4,7-trioxo-3,4,6,7-tetrahydropyrido[4,3-d]pyrimidin-1(2H)-yl)benzamide] | 1 to 3 nM
Cc1c(=O)n(C)c(Nc2ccc(I)cc2F)c2c(=O)n(CCO)c(=O)n(-c3cccc(C(=O)NC4CC4)c3)c12 [Compound 55, N-cyclopropyl-3-(5-((2-fluoro-4-iodophenyl)amino)-3-(2-hydroxyethyl)-6,8-dimethyl-2,4,7-trioxo-3,4,6,7-tetrahydropyrido[4,3-d]pyrimidin-1(2H)-yl)benzamide] | 4 to 100 nM
Cc1c(=O)n(C)c(Nc2ccc(I)cc2F)c2c(=O)n(C)c(=O)n(-c3cccc(C(=O)N4CCC4)c3)c12 [Compound 56, 1-(3-(azetidine-1-carbonyl)phenyl)-5-((2-fluoro-4-iodophenyl)amino)-3,6,8-trimethylpyrido[4,3-d]pyrimidine-2,4,7(1H,3H,6H)-trione] | 1 to 3 nM
